Format in all cases: cell-based, human
Experiment [1] relates to Raf. Description: Western analysis of Raf expression in K562 cells. Particulars: 2.0 μM SAHA ± 250 nM Compound I, 16 hr. As to the method: (§1) Immunoblot Analysis: Immunoblotting is performed as described previously (Yu et al., Nat. Rev. Cancer 1:294-202). In brief, after drug treatment cells are pelleted by centrifugation, and lysed immediately in Laemmli buffer [1×=30 mM Tris-base (pH 6.8), 2% SDS, […] β-mercaptoethanol, and 10% glycerol], and briefly sonicated. Homogenates are quantified using Coomassie protein assay reagent (Pierce, Rockford, Ill.). Equal amounts of protein (20 μg) are boiled for 10 min, separated by SDS-PAGE (5% stacker and 10% resolving), and electroblotted to nitrocellulose membrane. After blocking in TBS-T (0.05%) and 5% milk for 1 h at 22° C., the blots are incubated in fresh blocking solution with an appropriate dilution of primary antibody for 4 h at 22° C. […]
(§2) K562 cells are treated as above, and monitored for expression of Bcl-xL, Mcl-1, and XIAP. […]

The test system of experiment [2] is cytochrome c, AIF, and Smac/DIABLO. As to the kind of experiment: Western analysis of release of cytochrome c, AIF and Smac/DIABLO into S-100 cytosolic fraction. Particulars: K562; Compound I (250 nM), SAHA (2.0 μM); 24 hr.
In experiment [3] the test system is K562 cells. As to the kind of experiment: Apoptosis by morphological analysis of Wright Giemsa-stained cytospin preparations. The following applies: for percentage of apoptotic cells: Table 2A, 2.0 μM SAHA ± 250 nM Compound I; for % of apoptotic cells: Table 5, K562: SAHA […]. The procedure:
(§3) Experimental Format: Logarithmically growing cells are placed in sterile plastic T-flasks (Corning, Corning, N.Y.) to which are added the designated drugs and the flasks replaced in the incubator for intervals. At the end of the incubation period, cells are transferred to sterile centrifuge tubes, pelleted by centrifugation at 400×g for 10 min at room temperature, and prepared for analysis as described below.
(§4) Assessment of Apoptosis: After drug exposures, cytocentrifuge preparations are stained with Wright-Giemsa and viewed by light microscopy to evaluate the extent of apoptosis (i.e., cell shrinkage, nuclear condensation, formation of apoptotic bodies, etc.) as described previously (Yu et al., Nat. Rev. Cancer 1:294-202). For these studies, the percentage of apoptotic cells is determined by evaluating ≧500 cells/condition in triplicate. To confirm the results of morphological analysis, Annexin V/PI staining is used. Annexin V/PI (BD PharMingen, San Diego, Calif.) analysis of cell death is carried out as per the manufacturer's instructions. In studies involving TNF and TNF soluble receptor, both compound are combined and maintained at room temperature 20 min prior to use. For these experiments 1-2×10^5 cells per condition are harvested. Analysis is carried out using a Becton-Dickinson FACScan cytofluorometer (Mansfield, Mass.). To further confirm the morphology results, TUNEL staining is used. For TUNEL staining, cytocentrifuge preparations are obtained and fixed with 4% formaldehyde. The slides are treated with acetic acid/ethanol (1:2), stained with terminal transferase reaction mixture containing 1× terminal transferase reaction buffer (0.25 units/μl terminal transferase, 2.5 mM CoCl2, and 2 pmol fluorescein-12-dUTM; Boehringer Mannheim, Indianapolis, Ind.), and visualized using fluorescence microscopy.

Experiment [4] has as its system phospho-JNK. Description: Western analysis of phospho-JNK in K562 cells. The following applies: 2.0 μM SAHA ± 250 nM Compound I, 16 hr. As to the method: as §1, §2
Experiment [5] has as its system Jurkat lymphoblastic leukemia. Description: Apoptosis by Wright Giemsa-stained cytospin slides. The following applies: Jurkat: SAHA 0.75 μM; Compound I 250 nM; 24 hr. As to the method: as §3, §4
In experiment [6] the test system is NB4 promyelocytic leukemia cells. As to the kind of experiment: Apoptosis by Wright Giemsa-stained cytospin slides. Particulars: NB4: SAHA 1.5 μM; Compound I 250 nM; 24 hr. The procedure:
as §3, §4

Experiment [7] has as its system HL-60 promyelocytic leukemia cells. As to the kind of experiment: Apoptosis by Wright Giemsa-stained cytospin slides. The following applies: HL-60: SAHA 1.0 μM; Compound I 250 nM; 24 hr. As to the method: as §3, §4
For experiment [8], the system named is U937 monocytic leukemia. Description: Apoptosis by Wright Giemsa-stained cytospin slides. The following applies: U937: SAHA 1.5 μM; Compound I 250 nM; 24 hr. The procedure:
as §3, §4

SMILES strings stand for the structures.

Turning to `Cc1ccc(NC(=O)c2ccc(CN3CCN(C)CC3)cc2)cc1Nc1nccc(-c2cccnc2)n1` [Compound I, N-{5-[4-(4-methyl-piperazino-methyl)-benzoylamido]-2-methylphenyl}-4-(3-pyridyl)-2-pyrimidine-amine], the “expression of Raf” value in experiment [1] is “little effect”. The “release of cytochrome c, AIF, and Smac/DIABLO into the cytosolic S-100 cell fraction” value in experiment [2] is listed as “minimal”. In addition, the apoptosis was determined as 1.1 ± 0.5% in experiment [3] (Table 1A, Compound I 100 nM, SAHA 0 or 2 μM, 24 hr); 1.3 ± 0.6% in experiment [3] (Table 1A, Compound I 150 nM, SAHA 0 or 2 μM, 24 hr); 1.6 ± 0.6% in experiment [3] (Table 1A, Compound I 200 nM, SAHA 0 or 2 μM, 24 hr); 2.8 ± 1.2% in experiment [3] (Table 1A, Compound I 250 nM, SAHA 0 or 2 μM, 24 hr); 2.7 ± 1.2% in experiment [3] (Table 1B, SAHA 0 μM, Compound I 250 nM, 24 hr). Also, the “percentage of apoptotic cells” value came out at 0.6 ± 0.2% in experiment [3] (0 hours); 1.1 ± 0.5% in experiment [3] (6 hours); 2.1 ± 0.8% in experiment [3] (12 hours); 3.3 ± 1.0% in experiment [3] (18 hours); 3.5 ± 1.2% in experiment [3] (24 hours); 21.8 ± 3.4% in experiment [3] (48 hours). Moreover, the “% of apoptotic cells” value was 8.3 ± 3.2% in experiment [3] (Compound I 250 nM, 24 hr); 1.1 ± 0.6% in experiment [5]; 1.8 ± 1.3% in experiment [6]; 3.1 ± 1.3% in experiment [7]; 0.9 ± 08% in experiment [8]. The “Compound I + SB % of apoptotic cells” value in experiment [3] (Table 6, K562, 24 hr, sodium butyrate (SB; 1 or 2 mM), Compound I concentration not given) came out at 10.3 ± 3.6%. This compound also displayed a cell death in experiment [3] (sensitive K562, Compound I (1.0 or 1.25 μM) for 48 hr, data not shown) of about 100%. In addition, the “expression of phospho-JNK (JNK activation)” value in experiment [4] is given as “fail to modify”.

As to `O=C(CCCCCCC(=O)Nc1ccccc1)NO` [SAHA, suberoylanilide hydroxamic acid], the “expression of Raf” value in experiment [1] is “clear reduction”. The “release of cytochrome c, AIF, and Smac/DIABLO into the cytosolic S-100 cell fraction” value in experiment [2] is given as “minimal”. The apoptosis in experiment [3] (Table 1B, SAHA 1 μM, Compound I 0 or 250 nM, 24 hr) is 0.8 ± 0.4%; in experiment [3] (Table 1B, SAHA 1.5 μM, Compound I 0 or 250 nM, 24 hr), 1.6 ± 0.7%; in experiment [3] (Table 1B, SAHA 2.0 μM, Compound I 0 or 250 nM, 24 hr), 2.7 ± 0.7%; in experiment [3] (Table 1B, SAHA 3.0 μM, Compound I 0 or 250 nM, 24 hr), 28.4 ± 3.2%; in experiment [3] (Table 1B, SAHA […], Compound I 0 or 250 nM, 24 hr), 14.5 ± 1.3%. For the same compound, the “percentage of apoptotic cells” value in experiment [3] (0 hours) was determined as 0.6 ± 0.2%; in experiment [3] (6 hours) it was 0.9 ± 0.2%; in experiment [3] (12 hours), 1.7 ± 0.5%; in experiment [3] (18 hours), 2.3 ± 0.8%; in experiment [3] (24 hours) it was 3.5 ± 1.1%; in experiment [3] (48 hours) it was 14.8 ± 2.1%. The “% of apoptotic cells” value was 6.6 ± 3.8% in experiment [3] (Compound I 250 nM, 24 hr); 6.3 ± 3.2% in experiment [5]; 5.6 ± 2.3% in experiment [6]; 6.4 ± 1.9% in experiment [7]; 5.4 ± 1.9% in experiment [8]. In addition, the “expression of phospho-JNK (JNK activation)” value in experiment [4] is listed as “fail to modify”.
